We go through ten compounds from PMC8876244, “Effective Synthesis and Antifouling Activity of Dolastatin 16 Derivatives” (Marine Drugs, 2022).

≈ marks a conversion by molar mass, not a printed value. Read-outs that look alike come from different tables or passages of the source. Starred links: 1 amine or outer side, 2 acyl side, 3 side chain; linkers in the order of their positions; H or OH if unused. Non-standard residues stand in square brackets, D forms with d. Residues, ends and D or L forms follow the SMILES beside them. *: point of attachment. X3 = CC(=O)Oc1ccc(C[C@@H](C)[C@H](N[*:1])C(=O)[*:2])cc1; X4 = CC(C)[C@@H](N[*:1])[C@@H](C)C(=O)[*:2]; X1 = CC(Cc1ccccc1)C(N[*:1])C(=O)[*:2]; X2 = CC(C)C(N[*:1])C(C)C(=O)[*:2]; X5 = C[C@H](OCc1ccccc1)C(=O)*; dNMeV = CN[C@@H](C(=O)O)C(C)C; dHiv = CC(C)[C@@H](O)C(=O)O; Hiv = CC(C)[C@H](O)C(=O)O; Lac = C[C@H](O)C(=O)O; OBn = c1ccc(CO*)cc1 Bounds are passed on as bounds.

Data set [1] can be described thus: Antifouling assay: toxicity (mortality) to cypris larvae, 48 h exposure. The conditions noted are these: Amphibalanus amphitrite (barnacle, cypris larvae), in vivo, 50% mortality of cyprids, highest concentration 10.0 μg/mL, read-out: LC50 (50% lethal concentration). The method, then: (§1) Antifouling assay against larvae of the barnacle Amphibalanus amphitrite was conducted according to the previous literature. The adult barnacles, A. amphitrite, obtained from oyster farms in Lake Hamana and a pier of Shimizu bay, Shizuoka, were kept in an aquarium at 20 °C and were fed on Artemia salina nauplii. Broods were released as I–II stage nauplii upon immersion in seawater after drying overnight. The nauplii (1.0~3.0 indiv./mL) thus obtained were cultured in 2.0 L filtered (0.2 μm) natural seawater (diluted by DW: salinity 28) containing penicillin G (20 μg/mL) and streptomycin sulfate (30 μg/mL) at 25 °C and were fed on the diatom Chaetoceros gracillis at concentrations of 40 × 10^4 cells/mL. Larvae reached the cyprid stage in 5 days. The cyprids were collected, then stored at 4 °C until use (0-day-old).
(§2) The test compounds were dissolved in ethanol and aliquots of the solution (20 μL) were transferred to wells of a 24-well polystyrene culture plates and then air-dried for 3 h at room temperature and CuSO4 was used as positive compound. Four wells were used for each concentration (0.03, 0.1, 0.3, 1.0, 3.0, 10.0 μg/mL). To each well were added filtered ([…]) natural seawater (2.0 mL, salinity 28) and six 2-day-old cyprids. The plates were kept in the dark at 25 °C for 48 h. […] Three or four trials were carried out for each concentration. Antifouling activity (EC50) indicates the concentration reducing the larval settlement to 50% of the control (non-treatment) by Probit analysis. Toxicity of compounds were expressed as LC50 value, which indicates the concentration showing 50% mortality estimated by Probit analysis.

Data set [2] concerns cypris larvae of the barnacle Amphibalanus amphitrite. The data set is described as follows: Antifouling assay: inhibition of settlement of cypris larvae, 48 h exposure. In kind it is in vivo. The following applies: for EC50: Amphibalanus amphitrite, 48 h. The method, then:
The antifouling activities of synthetic samples were evaluated as EC50 values against the cypris larvae of A. amphitrite by exposure of each compound for 48 h (Table 1, Figure 2). […] We next investigated the biological activity of the fragments.
as §1, §2

The test system is the same in data set [3]. The following applies: previous compounds and positive control; cited from earlier work.
Data set [4] relates to larval settlement and metamorphosis of the barnacle Amphibalanus amphitrite. Further details: method as in PMID 20658384. The conditions noted are these: cited from earlier work.
Data set [5] has as its system human cancer cell lines such as NCI-H460, KM20L2 and SF-295. The conditions noted are these: cited from earlier work.
The test system of data set [6] is cypris larvae of the barnacle Amphibalanus amphitrite. The conditions noted are these: previous compounds and positive control, cited from earlier work; for EC50: read-out: EC50 (μM), antifouling activity.
The subject of data set [7] is barnacle Amphibalanus amphitrite. Further details: method as in PMID 20658384. The conditions noted are these: cited from earlier work.
Setting [8] is: larval settlement reduced to 50% of control, Probit analysis, read-out: EC50 (50% effective concentration), antifouling activity.
Where [9] appears, read: larval settlement, read-out: EC50 (μM), antifouling activity.

Consider `CC(C)[C@@H](NC(=O)[C@@H]1CCCN1C(=O)[C@@H](NC(=O)OC(C)(C)C)[C@H](C)Cc1ccccc1)[C@@H](C)C(=O)OCc1ccccc1` [Boc-3], for which, in data set [1], the LC50 was above 10 µg/mL. Also, the EC50 in data set [2] (setting [8]) is below 1 µg/mL; in data set [2] (setting [9]) it was 1.3 µM.
As for `CC(C)C1NC(=O)[C@@H]2CCCN2C(=O)C(C(C)Cc2ccccc2)NC(=O)[C@@H]2CCCN2C(=O)[C@@H](C(C)C)N(C)C(=O)[C@@H](C(C)C)OC(=O)[C@@H]2CCCN2C(=O)[C@H](C)OC(=O)C1C` (some centres unmarked) [Compound 1, Dolastatin 16] (cyclo([Lac]P[dHiv][dNMeV]P[X1]P[X2])), in data set [3], the “LC50 (50% lethal concentration)” value was above 10 µg/mL. In data set [4], the “EC50 (50% effective concentration)” value is 0.003 µg/mL (≈ 0.00341 µM). Moreover, in data set [5] (1 isolated from the natural sample), the “Growth inhibition of human cancer cell lines” value is “strong growth inhibitions”. Besides, in data set [5] (synthetic 1), the “Anticancer activity of synthetic sample versus isolated compound” value is “much less potent than the isolated compound”. Moreover, in data set [6], the “EC50 (50% effective concentration), antifouling activity” value is below 0.03 µg/mL and the EC50 was below 0.03 µM. The “LC50 (50% lethal concentration)” value in data set [7] is 20 µg/mL (≈ 22.8 µM).
As for `CC(C)[C@H](OC(=O)[C@@H]1CCCN1C(=O)[C@H](C)OCc1ccccc1)C(=O)N(C)[C@@H](C(=O)N1CCC[C@H]1C(=O)O)C(C)C` [Compound 2] (X5-P[Hiv][dNMeV]P-OH), the “LC50 (50% lethal concentration)” value in data set [3] is above 10 µg/mL. For the same compound, in data set [6], the “EC50 (50% effective concentration), antifouling activity” value was above 10 µg/mL and the EC50 was above 17 µM.
`CC(C)[C@@H](NC(=O)[C@@H]1CCCN1C(=O)[C@@H](N)[C@H](C)Cc1ccccc1)[C@@H](C)C(=O)OCc1ccccc1` [Compound 3]: the “LC50 (50% lethal concentration)” value in data set [3] is above 10 µg/mL. For the same compound, in data set [6], the “EC50 (50% effective concentration), antifouling activity” value is 1.17 µg/mL (≈ 2.3 µM) and the EC50 was 1.92 µM.
Turning to `CC(C)[C@@H](NC(=O)[C@@H]1CCCN1C(=O)[C@@H](NC(=O)OC(C)(C)C)[C@H](C)Cc1ccc(O)cc1)[C@@H](C)C(=O)OCc1ccccc1` [Compound 21, Boc-Dpv(OH)-Pro-Dml-OBn], the LC50 in data set [1] was above 10 µg/mL. The EC50 was below 1 µg/mL in data set [2] (setting [8]) and 0.96 µM in data set [2] (setting [9]).
As to `CC(C)[C@@H](NC(=O)[C@@H]1CCCN1C(=O)[C@@H](NC(=O)OC(C)(C)C)[C@H](C)Cc1ccc(OCc2ccccc2)cc1)[C@@H](C)C(=O)OCc1ccccc1` [Compound 22, Boc-Dpv(OBn)-Pro-Dml-OBn], the LC50 in data set [1] is above 10 µg/mL. In addition, the EC50 worked out at 4.62 µg/mL in data set [2] (setting [8]) and 6.47 µM in data set [2] (setting [9]).
On to `CC(=O)Oc1ccc(C[C@@H](C)[C@@H]2NC(=O)[C@@H]3CCCN3C(=O)[C@@H](C(C)C)N(C)C(=O)[C@H](C(C)C)OC(=O)[C@@H]3CCCN3C(=O)[C@H](C)OC(=O)[C@H](C)[C@@H](C(C)C)NC(=O)[C@@H]3CCCN3C2=O)cc1` [Compound 24, Dolastatin 16 Acetate] (cyclo([Hiv][dNMeV]P[X3]P[X4][Lac]P)), for which, in data set [1], the LC50 at 48 h was above 10 µg/mL. Further, the EC50 in data set [2] (read-out: EC50 (50% effective concentration), antifouling activity) worked out at 1.74 µg/mL; in data set [2] (read-out: EC50 (μM), antifouling activity), 1.86 µM. Further, the “Antifouling activity (in words)” value in data set [2] (settlement of cypris larvae) is listed as “much less potent than dolastatin 16”.
For the compound `CC(C)[C@H](OC(=O)[C@@H]1CCCN1C(=O)[C@H](C)OCc1ccccc1)C(=O)N(C)[C@@H](C(=O)N1CCC[C@H]1C(=O)OCc1ccccc1)C(C)C` [Compound 25, BnO-Lac-Pro-O-Hiv-D-MeVal-Pro-OBn] (X5-P[Hiv][dNMeV]P-OBn), in data set [1], the LC50 was above 10 µg/mL. Further, the values for the EC50 in data set [2] (setting [8]) and in data set [2] (setting [9]) were below 1 µg/mL and 1.32 µM, respectively.
For `CC(C)[C@H](OC(=O)[C@@H]1CCCN1C(=O)OC(C)(C)C)C(=O)N(C)[C@@H](C(=O)N1CCC[C@H]1COCc1ccccc1)C(C)C` [Compound 29, Boc-Pro-O-Hiv-D-MeVal-Pro-CH2OBn], in that order: above 10 µg/mL, 3.27 µg/mL and 6.52 µM.
For `O=S(=O)([O-])[O-].[Cu+2]` [CuSO4, reference compound], in data set [3], the “LC50 (50% lethal concentration)” value is above 10 µg/mL. In data set [6], the “EC50 (50% effective concentration), antifouling activity” value is 0.10 µg/mL and the EC50 was 0.63 µM.
